According to PubChem BioAssay (NCI):
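GI50 is the concentration that inhibits growth by half. TGI marks complete inhibition of growth.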

What was measured:
Test in all cases: growth of human tumour cells (NCI), 384-well format
A498 renal = tested on: A498 renal
M14 melanoma = tested on: M14 melanoma
MDA-MB-468 breast = tested on: MDA-MB-468 breast
A549 NSCLC = tested on: A549 NSCLC
NCI-H522 lung = tested on: NCI-H522 lung
MCF7 breast = tested on: MCF7 breast
OVCAR-3 ovarian = tested on: OVCAR-3 ovarian
PC-3 prostate = tested on: PC-3 prostate
MDA-MB-435 melanoma = tested on: MDA-MB-435 melanoma
COLO 205 colon = tested on: COLO 205 colon
HOP-92 NSCLC = tested on: HOP-92 NSCLC
DU-145 prostate = tested on: DU-145 prostate
MDA-MB-231 breast = tested on: MDA-MB-231 breast
OVCAR-5 ovarian = tested on: OVCAR-5 ovarian
LOX IMVI melanoma = tested on: LOX IMVI melanoma
RPMI-8226 leukemia = tested on: RPMI-8226 leukemia
SF-295 CNS = tested on: SF-295 CNS
KM12 colon = tested on: KM12 colon
MALME-3M melanoma = tested on: MALME-3M melanoma
SF-539 CNS = tested on: SF-539 CNS
SR leukemia = tested on: SR leukemia
HL-60(TB) leukemia = tested on: HL-60(TB) leukemia
U251 glioblastoma = tested on: U251 glioblastoma
TK-10 renal = tested on: TK-10 renal
SK-MEL-28 melanoma = tested on: SK-MEL-28 melanoma
NCI/ADR-RES ovarian = tested on: NCI/ADR-RES ovarian
NCI-H322M lung = tested on: NCI-H322M lung
UACC-62 melanoma = tested on: UACC-62 melanoma
BT-549 breast = tested on: BT-549 breast
SNB-75 CNS = tested on: SNB-75 CNS
NCI-H226 lung = tested on: NCI-H226 lung
HCT-116 colon = tested on: HCT-116 colon
NCI-H460 NSCLC = tested on: NCI-H460 NSCLC
SF-268 CNS = tested on: SF-268 CNS
T-47D breast = tested on: T-47D breast
HCT-15 colon = tested on: HCT-15 colon
OVCAR-4 ovarian = tested on: OVCAR-4 ovarian
NCI-H23 lung = tested on: NCI-H23 lung
HOP-62 NSCLC = tested on: HOP-62 NSCLC
SN12C renal = tested on: SN12C renal
MOLT-4 leukemia = tested on: MOLT-4 leukemia
SNB-19 CNS = tested on: SNB-19 CNS
SK-MEL-5 melanoma = tested on: SK-MEL-5 melanoma
EKVX NSCLC = tested on: EKVX NSCLC
UACC-257 melanoma = tested on: UACC-257 melanoma
HCC-2998 colon = tested on: HCC-2998 colon
IGROV1 ovarian = tested on: IGROV1 ovarian
RXF 393 renal = tested on: RXF 393 renal
ACHN renal = tested on: ACHN renal

**Q.** Which results are given for `CCNC(=O)C[C@@H]1N=C(c2ccc(Cl)cc2)c2cc(OC)ccc2-n2c(C)nnc21`?
**A.** GI50 (A498 renal): 0.662 µM; TGI (A498 renal): 81.7 µM; GI50 (M14 melanoma): 2.35 µM; TGI (M14 melanoma): 55.2 µM; GI50 (MDA-MB-468 breast): 8.18 µM; TGI (MDA-MB-468 breast): > 100 µM; GI50 (A549 NSCLC): 7.42 µM; TGI (A549 NSCLC): > 100 µM; GI50 (NCI-H522 lung): 0.213 µM; TGI (NCI-H522 lung): 5.39 µM; GI50 (MCF7 breast): < 0.01 µM; TGI (MCF7 breast): > 100 µM; GI50 (OVCAR-3 ovarian): 0.324 µM; TGI (OVCAR-3 ovarian): 14.8 µM; GI50 (PC-3 prostate): 0.714 µM; TGI (PC-3 prostate): > 100 µM; GI50 (MDA-MB-435 melanoma): 8.67 µM; TGI (MDA-MB-435 melanoma): 77.6 µM; GI50 (COLO 205 colon): 0.496 µM; TGI (COLO 205 colon): 15.6 µM; GI50 (HOP-92 NSCLC): 26.4 µM; TGI (HOP-92 NSCLC): > 100 µM; GI50 (DU-145 prostate): 12.8 µM; TGI (DU-145 prostate): > 100 µM; GI50 (MDA-MB-231 breast): 5.87 µM; TGI (MDA-MB-231 breast): > 100 µM; GI50 (OVCAR-5 ovarian): 0.296 µM; TGI (OVCAR-5 ovarian): 18.7 µM; GI50 (LOX IMVI melanoma): 0.196 µM; TGI (LOX IMVI melanoma): 0.551 µM; GI50 (RPMI-8226 leukemia): 0.0747 µM; TGI (RPMI-8226 leukemia): 0.992 µM; GI50 (SF-295 CNS): 21.6 µM; TGI (SF-295 CNS): > 100 µM; GI50 (KM12 colon): 5.56 µM; TGI (KM12 colon): > 100 µM; GI50 (MALME-3M melanoma): 12.3 µM; TGI (MALME-3M melanoma): 65.9 µM; GI50 (SF-539 CNS): 2.25 µM; TGI (SF-539 CNS): > 100 µM; GI50 (SR leukemia): < 0.01 µM; TGI (SR leukemia): 58 µM; GI50 (HL-60(TB) leukemia): 0.0257 µM; TGI (HL-60(TB) leukemia): 0.131 µM; GI50 (U251 glioblastoma): 9.26 µM; TGI (U251 glioblastoma): > 100 µM; GI50 (TK-10 renal): 0.48 µM; TGI (TK-10 renal): 28.6 µM; GI50 (SK-MEL-28 melanoma): 14.1 µM; TGI (SK-MEL-28 melanoma): > 100 µM; GI50 (NCI/ADR-RES ovarian): 11.4 µM; TGI (NCI/ADR-RES ovarian): 36.2 µM; GI50 (NCI-H322M lung): 0.62 µM; TGI (NCI-H322M lung): 34.6 µM; GI50 (UACC-62 melanoma): < 0.01 µM; TGI (UACC-62 melanoma): > 100 µM; GI50 (BT-549 breast): 0.375 µM; TGI (BT-549 breast): 23.3 µM; GI50 (SNB-75 CNS): 28.3 µM; TGI (SNB-75 CNS): > 100 µM; GI50 (NCI-H226 lung): 1.63 µM; TGI (NCI-H226 lung): 27.7 µM; GI50 (HCT-116 colon): 4.23 µM; TGI (HCT-116 colon): > 100 µM; GI50 (NCI-H460 NSCLC): 4.05 µM; TGI (NCI-H460 NSCLC): > 100 µM; GI50 (SF-268 CNS): 22.5 µM; TGI (SF-268 CNS): > 100 µM; GI50 (T-47D breast): 15.4 µM; TGI (T-47D breast): > 100 µM; GI50 (HCT-15 colon): 0.613 µM; TGI (HCT-15 colon): 15 µM; GI50 (OVCAR-4 ovarian): 0.137 µM; TGI (OVCAR-4 ovarian): 0.899 µM; GI50 (NCI-H23 lung): 2.77 µM; TGI (NCI-H23 lung): > 100 µM; GI50 (HOP-62 NSCLC): 0.246 µM; TGI (HOP-62 NSCLC): 13.8 µM; GI50 (SN12C renal): 0.742 µM; TGI (SN12C renal): > 100 µM; GI50 (MOLT-4 leukemia): 0.599 µM; TGI (MOLT-4 leukemia): 15.7 µM; GI50 (SNB-19 CNS): 1.63 µM; TGI (SNB-19 CNS): > 100 µM; GI50 (SK-MEL-5 melanoma): 0.492 µM; TGI (SK-MEL-5 melanoma): 18.2 µM; GI50 (EKVX NSCLC): 25.4 µM; TGI (EKVX NSCLC): > 100 µM; GI50 (UACC-257 melanoma): 0.423 µM; TGI (UACC-257 melanoma): 30.3 µM; GI50 (HCC-2998 colon): 0.0861 µM; TGI (HCC-2998 colon): 10.8 µM; GI50 (IGROV1 ovarian): 0.394 µM; TGI (IGROV1 ovarian): 16.7 µM; GI50 (RXF 393 renal): 26 µM; TGI (RXF 393 renal): > 100 µM; GI50 (ACHN renal): 3.55 µM; TGI (ACHN renal): > 100 µM
